Test results as given in paper PMC7380166, “How to Study the Metabolism of New Psychoactive Substances for the Purpose of Toxicological Screenings—A Follow-Up Study Comparing Pooled Human Liver S9, HepaRG Cells, and Zebrafish Larvae” (Frontiers in Chemistry, 2020).

Experiments:
[1] = ref Wagmann et al., cited from earlier work; for Detection in pHLS9 [25 µM]: 1P-LSD and metabolites, n = 2, according to literature, 2019b
HepaRG cells = assay: Incubations with HepaRG cells, metabolite identification by LC-HRMS/MS; assay type: in vitro ADME, human; settings: 24 h; for Absolute peak area, HepaRG [25 μM]: 25 μM parent NPS; for Absolute peak area, HepaRG [25 μM] / Absolute peak area, HepaRG [250 μM]: cell culture medium, one replicate of n = 3, n.d. = not detected; for Absolute peak area, HepaRG [250 μM]: 250 μM parent NPS
[2] = after assumed consumption of a blotter containing 1P-LSD; ref Grumann et al., [2019]; cited from earlier work
zebrafish larvae [3] = assay: In vivo maximum-tolerated concentration (MTC) study in zebrafish larvae; set-up: species or system zebrafish (Danio rerio); settings: for Survival rate: 24-h treatment, fifteen larvae
Experimental: Internal protocols based on published standard methods (Westerfield, [2007]) were used to perform zebrafish husbandry and the maximum-tolerated concentration (MTC) testing was based on a previous study (Richter et al., [2019a]). Danieau's medium [17 mM NaCl, 2 mM KCl, 0.12 mM MgSO4, 1.8 mM Ca(NO3)2, 1.5 mM HEPES, pH 7.1–7.3, and 1.2 μM methylene blue] at 28°C was used to raise zebrafish larvae of the AB wild-type strain. For MTC testing, 96-well plates were used with 100 μl of medium and one larva per well. Drug exposition was started 4 dpf using 0, 0.01, 0.1, 1, 10, 50, or 100 μM final concentrations of 3,4-DMA-NBOMe, ephylone, 4F-MDMB-BINACA, 4F-PHP, or 1P-LSD, respectively. The drug exposure in the incubator at 28°C lasted 24 h. The final DMSO concentration was 1% (v/v) for all experiments. Monitoring of the larvae was done using a LEICA M205 FA stereo microscope (Leica Mikrosysteme Vertrieb GmbH, Wetzlar, Germany) to detect developmental defects and/or decreased survival rates. Fifteen larvae were used for each experiment.

monooxygenases = settings: initial monooxygenases activity screenings described elsewhere; ref Caspar et al., [2018a]; Wagmann et al., [2019b],[c]; cited from earlier work
zebrafish larvae [4] = assay: Zebrafish larvae exposure, metabolite identification by LC-HRMS/MS; settings: 24 h; for Absolute peak area, Zebrafish larvae [100 µM]: 100 µM parent NPS in medium, larvae 4 dpf, larvae extract, one replicate of n = 3, n.d. = not detected
[5] = after subcutaneous administration of 1P-LSD to rats; ref Halberstadt et al., [2019]; cited from earlier work

**Q.** Which “Number of phase I metabolites detected, pHLS9 [25 μM]” value ([1]; 25 μM, [2019c]) does the source give for `CCC(=O)n1cc2c3c(cccc31)C1=C[C@@H](C(=O)N(CC)CC)CN(C)[C@@H]1C2` [Metabolite 1P-LSD, 1-propionyl-d-lysergic acid diethylamide] here?
**A.** 8 (Wagmann et al., [2019c])

**Q.** And the “Number of phase II metabolites detected, pHLS9 [25 μM]” value ([1]; 25 μM, [2019c])?
**A.** 0 (Wagmann et al., [2019c])

**Q.** What about the “Detection in pHLS9 [25 µM]” value [1] of the same compound?
**A.** +

**Q.** And the “Absolute peak area, HepaRG [25 μM]” value (HepaRG cells)?
**A.** 3.60E+07

**Q.** What about the “Number of phase I metabolites detected, HepaRG [25 μM]” value (HepaRG cells; 25 μM) of the same compound?
**A.** 14

**Q.** And the “Number of phase II metabolites detected, HepaRG [25 μM]” value (HepaRG cells; 25 μM)?
**A.** 1

**Q.** And the “Absolute peak area, HepaRG [250 μM]” value (HepaRG cells)?
**A.** 5.41E+06

**Q.** What about the “Number of phase I metabolites detected, HepaRG [250 μM]” value (HepaRG cells; 250 μM) of the same compound?
**A.** 15

**Q.** What about the “Number of phase II metabolites detected, HepaRG [250 μM]” value (HepaRG cells; 250 μM) of the same compound?
**A.** 2

**Q.** What about the “Detection in serum and urine samples of an intoxicated patient” value [2] of the same compound?
**A.** could not be detected

**Q.** And the Survival rate (zebrafish larvae [3]; 0.01 μM, larvae 4 dpf)?
**A.** 100%

**Q.** What about the Survival rate (zebrafish larvae [3]; 0.1 μM, larvae 4 dpf) of the same compound?
**A.** 100%

**Q.** What about the Survival rate (zebrafish larvae [3]; 1 μM, larvae 4 dpf) of the same compound?
**A.** 100%

**Q.** What about the Survival rate (zebrafish larvae [3]; 10 μM, larvae 4 dpf) of the same compound?
**A.** 100%

**Q.** What about the Survival rate (zebrafish larvae [3]; 50 μM, larvae 4 dpf) of the same compound?
**A.** 100%

**Q.** What about the Survival rate (zebrafish larvae [3]; 100 μM, larvae 4 dpf) of the same compound?
**A.** 100%

**Q.** And the “Survival rates for all tested concentrations” value (zebrafish larvae [3]; 0.01 to 100 μM, larvae 4 dpf, 24 h)?
**A.** 100%

**Q.** And the “Concentration considered non-toxic for zebrafish larvae (4 dpf)” value (zebrafish larvae [3]; 24 h exposure via medium)?
**A.** 100 µM

**Q.** What about the Malformations (zebrafish larvae [3]; up to 100 μM, larvae 4 dpf, 24 h) of the same compound?
**A.** no malformations

**Q.** What about the “Monooxygenases involved in metabolism” value (monooxygenases) of the same compound?
**A.** N-dealkylated and hydroxylated exclusively by CYP3A4

**Q.** What about the “Number of phase I metabolites detected, Zebrafish larvae” value (zebrafish larvae [4]; 100 μM in medium) of the same compound?
**A.** 22

**Q.** What about the “Number of phase II metabolites detected, Zebrafish larvae” value (zebrafish larvae [4]; 100 μM in medium) of the same compound?
**A.** 3

**Q.** What about the “Absolute peak area, Zebrafish larvae [100 µM]” value (zebrafish larvae [4]) of the same compound?
**A.** 2.92E+09

**Q.** What about the “Detection in rat plasma” value [5] of the same compound?
**A.** able to detect

**Q.** With `CCN(CC)C(=O)[C@@H]1C=C2c3cccc4[nH]cc(c34)C[C@H]2N(C)C1` [ML7, LSD] as the compound, how does the “Detection in pHLS9 [25 µM]” value [1] read?
**A.** +

**Q.** What about the “Absolute peak area, HepaRG [25 μM]” value (HepaRG cells) of the same compound?
**A.** 8.59E+08

**Q.** And the “Absolute peak area, HepaRG [250 μM]” value (HepaRG cells)?
**A.** 5.95E+09

**Q.** What about the “Detection in serum and urine samples of an intoxicated patient” value [2] of the same compound?
**A.** able to find

**Q.** And the “Absolute peak area, Zebrafish larvae [100 µM]” value (zebrafish larvae [4])?
**A.** 1.25E+09

**Q.** What about the “Detection in rat plasma” value [5] of the same compound?
**A.** able to detect
